Article PMC4884984, “Identification of approved and investigational drugs that inhibit hypoxia-inducible factor-1 signaling” (Oncotarget, 2016)
Read-outs that look alike come from different tables or passages of the source. Blank lines part the entries; values can stand above or below the compound they belong to.

Tests used:
Format in all cases: cell-based, human
[1] = tested on: HIF-1α–NanoLuc HCT116 cells; assay: Viability (Luc): CellTiter-Glo counter screen in HIF-1α–NanoLuc cells; conditions: for IC50: 1% O2, 18 h
HRE–bla ME-180 cells = assay: Viability (BLA): CellTiter-Glo counter screen in HRE–bla cells; conditions: for Viability (BLA) confirmatory IC50: Table S7, 1% O2, 18 h; for IC50: Table S7, confirmatory screen, 1% O2, 18 h
[2] = tested on: hypoxia response element-beta-lactamase (HRE–bla); assay: HRE-bla reporter gene assay in ME-180 cells; conditions: Table S7, confirmatory screen; for Emax: read-out: HRE–bla confirmatory Efficacy; for IC50: read-out: HRE–bla confirmatory IC50
HIF-1α–NanoLuc = HIF-1α–NanoLuc reporter gene assay (qHTS primary and confirmatory screens)
[3] = Homo sapiens, Table S7, confirmatory screen, read-out: HIF-1α–NanoLuc confirmatory Efficacy
[4] = Homo sapiens, Table S7, confirmatory screen, read-out: HIF-1α–NanoLuc confirmatory IC50
[5] = Homo sapiens, Table S7, primary screen, read-out: HIF-1α–NanoLuc primary Efficacy
[6] = Homo sapiens, Table S7, primary screen, read-out: HIF-1α–NanoLuc primary IC50
[7] = Homo sapiens, Table S1, primary screen, hypoxia 1% O2, 18 h, read-out: IC50 (primary screen, HIF-1α–NanoLuc assay)
[8] = Homo sapiens, Table S1, primary screen, read-out: Efficacy (primary screen, HIF-1α–NanoLuc assay)
[9] = Homo sapiens, Table S2, primary screen, read-out: Pathway inhibitors (primary screen) HIF-1α–NanoLuc Activity Efficacy
[10] = Homo sapiens, Table S2, primary screen, read-out: Pathway inhibitors (primary screen) HIF-1α–NanoLuc Activity IC50
[11] = Homo sapiens, Table S2, validation, read-out: Pathway inhibitors (validation) HIF-1α–NanoLuc Activity Efficacy
[12] = Homo sapiens, Table S2, validation, read-out: Pathway inhibitors (validation) HIF-1α–NanoLuc Activity IC50

IC50 ([2]; Homo sapiens, ME-180): 7.83 ± 1 µM
IC50 (HIF-1α–NanoLuc; [4]): 3.26 ± 0.81 µM
IC50 (HIF-1α–NanoLuc; [6]): 2.11 µM
Compound: Nc1nc2nc[nH]c2c(=S)[nH]1 [6-Thioguanine]
IC50 ([1]; Homo sapiens, HCT-116, Table S7, confirmatory screen): 2.3 ± 0.87 µM
Emax ([1]; Homo sapiens, HCT-116, Table S7, confirmatory screen, read-out: Viability (Luc) confirmatory Efficacy): 57 ± 2%
Viability (BLA) confirmatory IC50 (HRE–bla ME-180 cells): Inactive
Emax ([2]; Homo sapiens, ME-180): 88 ± 1%
Emax (HIF-1α–NanoLuc; [3]): 81 ± 7%
Emax (HIF-1α–NanoLuc; [5]): 81%

IC50 [2]: 9.47 ± 3.45 µM
IC50 (HIF-1α–NanoLuc; Table S2, validation, read-out: Pathway inhibitors (validation) HIF-1α–NanoLuc Activity IC50): 19.5 ± 2.49 µM
Compound: N#C/C(=C\c1ccc(-c2cc(Cl)ccc2Cl)o1)C(=O)Nc1cccc2ncccc12 [AGK2]
IC50 ([1]; Table S7, confirmatory screen): 21.2 ± 3.96 µM
IC50 (HRE–bla ME-180 cells): 10.1 ± 2.97 µM
HRE–bla confirmatory Efficacy [2]: 63 ± 14%
Pathway inhibitors (validation) HIF-1α–NanoLuc Activity Efficacy (HIF-1α–NanoLuc; Table S2, validation): 107± 9%
HIF-1α–NanoLuc confirmatory Efficacy (HIF-1α–NanoLuc; Table S7, confirmatory screen): 107 ± 9%

HRE–bla confirmatory IC50 [2]: Inactive
IC50 (HIF-1α–NanoLuc; [4]): 12.2 ± 0.83 µM
IC50 (HIF-1α–NanoLuc; [6]): 3.35 µM
Compound: O=C1NCN(c2ccccc2)C12CCN(CCCOc1ccc(F)cc1)CC2 [AMI-193]
Viability (Luc) confirmatory IC50 ([1]; Table S7, 1% O2, 18 h): Inactive
IC50 (HRE–bla ME-180 cells; Homo sapiens, ME-180): 25.8 ± 4.4 µM
Emax (HIF-1α–NanoLuc; [3]): 48 ± 6%
Emax (HIF-1α–NanoLuc; [5]): 57%

Pathway inhibitors (primary screen) HIF-1α–NanoLuc Activity IC50 (HIF-1α–NanoLuc; Table S2, primary screen): Inactive
Compound: CNC(=O)c1ccccc1Sc1ccc2c(/C=C/c3ccccn3)n[nH]c2c1 [Axitinib]

IC50 (HIF-1α–NanoLuc; [7]): 0.94 µM
Compound: COc1ccc2cc3[n+](cc2c1OC)CCc1cc2c(cc1-3)OCO2 [Berberine]
Emax (HIF-1α–NanoLuc; [8]): 116%

IC50 (HIF-1α–NanoLuc; [10]): 11.9 µM
Compound: COc1cc(Nc2c(C#N)cnc3cc(OCCCN4CCN(C)CC4)c(OC)cc23)c(Cl)cc1Cl [Bosutinib]
Emax (HIF-1α–NanoLuc; [9]): 58%

Pathway inhibitors (validation) HIF-1α–NanoLuc Activity IC50 (HIF-1α–NanoLuc; Table S2, validation): Inactive
Compound: O=c1[nH]c(=S)[nH]c(-c2ccccc2)c1Cc1c(O)ccc2ccccc12 [Cambinol]

IC50 (HIF-1α–NanoLuc; [7]): 10.6 µM
Compound: Cc1ccc(-c2cc(C(F)(F)F)nn2-c2ccc(S(N)(=O)=O)cc2)cc1 [Celecoxib]
Emax (HIF-1α–NanoLuc; [8]): 43%

IC50 (HIF-1α–NanoLuc; [7]): 10.6 µM
Compound: COCCOC(=O)C1=C(C)NC(C)=C(C(=O)OC/C=C/c2ccccc2)C1c1cccc([N+](=O)[O-])c1 (stereo not shown) [Cilnidipine]
Emax (HIF-1α–NanoLuc; [8]): 63%

Compound: CC[C@H]1CN2CCc3cc(OC)c(OC)cc3[C@@H]2C[C@@H]1C[C@H]1NCCc2cc(OC)c(OC)cc21 [Emetine]
Viability (BLA) confirmatory IC50 (HRE–bla ME-180 cells): Inactive
Emax ([2]; Homo sapiens, ME-180): 91 ± 1%
IC50 ([2]; Homo sapiens, ME-180): 0.29 ± 0.05 µM

IC50 (HIF-1α–NanoLuc; [10]): 15 µM
IC50 (HIF-1α–NanoLuc; [12]): 2.06 ± 3.3 µM
Compound: Cn1cc(C2=C(c3cn(C4CCN(Cc5ccccn5)CC4)c4ccccc34)C(=O)NC2=O)c2ccccc21 [Enzastaurin]
Emax (HIF-1α–NanoLuc; [9]): 39%
Emax (HIF-1α–NanoLuc; [11]): 67 ± 6%

IC50 (HIF-1α–NanoLuc; [7]): 0.3 µM
Compound: COc1cccc2c1C(=O)c1c(O)c3c(c(O)c1C2=O)C[C@@](O)(C(=O)CO)C[C@@H]3O[C@H]1C[C@H](N)[C@@H](O)[C@H](C)O1 [Epirubicin]
Emax (HIF-1α–NanoLuc; [8]): 108%

IC50 (HIF-1α–NanoLuc; [7]): 1.06 µM
Compound: CN1CC[C@H](c2c(O)cc(O)c3c(=O)cc(-c4ccccc4Cl)oc23)[C@H](O)C1 [Flavopiridol]
Emax (HIF-1α–NanoLuc; [8]): 76%

IC50 (HIF-1α–NanoLuc; [12]): 6.11 ± 1.64 µM
Compound: Cn1nccc1Nc1nccc(-c2ccn([C@H](CO)c3ccc(Cl)c(F)c3)c(=O)c2)n1 [GDC-0994]
Emax (HIF-1α–NanoLuc; [11]): 63 ± 7%

IC50 (HIF-1α–NanoLuc; [7]): 8.41 µM
Compound: O=c1c(-c2ccc(O)cc2)coc2cc(O)cc(O)c12 [Genistein]
Emax (HIF-1α–NanoLuc; [8]): 65%

IC50 (HIF-1α–NanoLuc; [7]): 0.6 µM
Compound: CC[C@@]1(O)C(=O)OCc2c1cc1n(c2=O)Cc2c-1nc1ccccc1c2/C=N/OC(C)(C)C [Gimatecan]
Emax (HIF-1α–NanoLuc; [8]): 108%
Emax (HIF-1α–NanoLuc; [9]): 108%

Compound: Cc1ccc(NC(=O)c2ccc(CN3CCN(C)CC3)cc2)cc1Nc1nccc(-c2cccnc2)n1 [Imatinib]
Emax (HIF-1α–NanoLuc; [9]): 28%

HRE–bla confirmatory IC50 [2]: Inactive
Compound: Cc1oncc1C(=O)Nc1ccc(C(F)(F)F)cc1 [Leflunomide]
Viability (BLA) confirmatory IC50 (HRE–bla ME-180 cells): Inactive

IC50 (HIF-1α–NanoLuc; [7]): 11.9 µM
Compound: COC(=O)C1=C(C)NC(C)=C(C(=O)OC(C)(C)CN(C)CCC(c2ccccc2)c2ccccc2)C1c1cccc([N+](=O)[O-])c1 (stereo not shown) [Lercanidipine]
Emax (HIF-1α–NanoLuc; [8]): 63%

IC50 (HIF-1α–NanoLuc; [10]): 0.42 µM
Compound: NC1(c2ccc(-c3nc4ccn5c(=O)[nH]nc5c4cc3-c3ccccc3)cc2)CCC1 [MK-2206]
Emax (HIF-1α–NanoLuc; [9]): 45%
